Experiments:
[1] = tested on: human non-small cell lung cancer-derived cell line A549; assay: Wound-Healing assay; format: cell-based; conditions: A549 cells, 2 days after injury
Source text: In the next stage, a determination was made as to whether or not the physiological function of cells induced by OPN production was suppressed by the compound 3 as a test compound. The determination was made by performing cell Wound-Healing assay. This assay is commonly known as a method for evaluating cell migration capacity. When a wound is made in a cell monolayer by scratching some cells with a pipette tip or the like, the wound is closed by migration of cells around the wound. The influence of a test compound on such function was observed by adding the test compound to a cell culture liquid. […]
Based on the taken images, the areas of the wounds were determined using Image-Pro Plus 7.0J (MediaCybernetics). Then, a wound healing rate (%) was calculated based on the following calculation formula: Wound healing rate (%)=100−[area of wound after 2 days from injury/area of wound just after injury]×100. The average wound-healing rates (%) of the control group and the two compound 3-treated groups at different concentrations were calculated. Further, the percentage of the wound-healing rate of the compound-treated group with respect to the wound-healing rate of the control group was also calculated.
The statistical processing of calculated values of the wound-healing rate was performed using Excel statistics, Statcel 3. […]

A549/OPNluc cells = assay: WST assay (cell growth inhibition); format: cell-based; conditions: Homo sapiens, 48±4 hours, WST-1, read-out: IC50 (concentration for 50% inhibition of cell growth)
Source text: A reporter vector pOPN1-luc obtained by inserting a human OPN promoter sequence (−765 to 23) into the multiple cloning site of pGL-3 basic vector (Promega) expresses luciferase when transfected into animal cells. This pOPN1-luc was transfected into a human non-small cell lung cancer-derived cell line A549 together with pPUR (Clontech) that expresses a puromycin resistance gene (puromycin-N-acetyl-transferase gene), and cells that could grow in a puromycin-supplemented medium and expressed luciferase were selected. The selected cells were named A549/OPNluc cells and used for observation of luciferase expression inhibitory effect under control of OPN promoter, as described later.
A test compound was added to a culture liquid containing A549/OPNluc cells to observe its influence on the amount of luciferase expressed in the cells. Here, it can be considered that when the test compound has cytotoxity or cell growth-suppressing effect, the total expression level of luciferase is reduced due to a reduction in the number of living cells that depends on the concentration of the test compound, and therefore the luciferase expression inhibitory effect of the test compound under control of OPN promoter cannot be properly evaluated. For this reason, WST assay for quantification of cell proliferation ability or cell viability by colorimetric measurement was first performed to determine IC50 (concentration for 50% inhibition of cell growth) of the test compound for cell growth. Then, luciferase activity measurement was performed to determine EC50 (concentration for 50% inhibition of luciferase expression) of the test compound for luciferase expression under control of OPN promoter.
A549/OPNluc cells were suspended in DMEM medium containing 10% fetal calf serum (FCS) and 1% penicillin/streptomycin (P/S) at 3×10^4 cells/mL to obtain a cell suspension, and 100 μL of the cell suspension was dispensed into each well of a 96-well plate. In order to perform the assay in triplicate, 3 wells were prepared for a control group and 3 wells were prepared for each test compound-treated group at each concentration. After the dispensing, the 96-well plate was incubated in a CO2 incubator (at 37° C. and 5% CO2) for 24±4 hours.
The test compound was dissolved in dimethylsulfoxide (DMSO) to obtain a 50 mmol/L solution, and the test compound solution was stored at −80° C. The test compound solution was diluted with DMSO in 2-fold dilution series (usually, in the range of 0.31 mmol/L to 20 mmol/L) to prepare test compound solutions whose concentration varied by two fold for WST assay.
Only DMSO (control) or the diluted test compound (sample) solution was dispensed in an amount of 0.5 μL into each well containing the cell suspension (200-fold dilution). The solution in each well was mixed with a vortex mixer, and then the 96-well plate was incubated in a CO2 incubator (at 37° C. and 5% CO2) for 48±4 hours. Then, 10 μL of Premix WST-1 Reagent (TAKARA BIO INC.) was added to each well. The solution in each well was mixed with a vortex mixer, and then the 96-well plate was incubated at 37° C. and 5% CO2. After 60 minutes or 120 minutes, absorbance values (450 nm) were measured using a microplate reader (Bio-Rad; Benchmark or Thermo Scientific; Varioskan Flash).
The absorbance values of the control wells and the absorbance values of the sample wells at each concentration were input into an Excel file to determine the percentages of absorbance values of the sample wells at each concentration with respect to the average of absorbance values of the control wells. From the determined values, a fitted curve was determined by the method of least squares to calculate IC50.

IC50 (A549/OPNluc cells): 56.2 µM
SMILES: CCCCCCCCCCCC(=O)[C@H]1C(=O)O[C@@H](C)C[C@@H]1C [Chemical formula 3]
wound-healing rate vs control group ([1]; 12.5 μmol/L): no difference
wound-healing rate vs control group ([1]; 25 μmol/L, significance level less than 1%): significantly suppressed

— patent US9463188B2, “Osteopontin production inhibitor containing dictyopyrone derivative or dihydrodictyopyrone derivative as active ingredient” (TOHOKU UNIVERSITY, priority 2013, dated 2016)
